This is an account of results in US12655462B2, “PLK1 target phosphorylation status and treatment of cancer with PLK1 inhibitors” (Cardiff Oncology, Inc., priority 2018, dated 2026).

Read-outs that look alike come from different tables or passages of the source.

In general, half-life refers to how long it takes for the measured level to halve.

For data set [1], the target named is T1, PLK1 phosphorylation of TCTP in MV4-11 and HL-60 (Homo sapiens, UniProt P53350).
T1 construct: endogenous in cells; host or cells: MV4-11 and HL-60 AML cell lines
T1 sequence (P53350 whole entry): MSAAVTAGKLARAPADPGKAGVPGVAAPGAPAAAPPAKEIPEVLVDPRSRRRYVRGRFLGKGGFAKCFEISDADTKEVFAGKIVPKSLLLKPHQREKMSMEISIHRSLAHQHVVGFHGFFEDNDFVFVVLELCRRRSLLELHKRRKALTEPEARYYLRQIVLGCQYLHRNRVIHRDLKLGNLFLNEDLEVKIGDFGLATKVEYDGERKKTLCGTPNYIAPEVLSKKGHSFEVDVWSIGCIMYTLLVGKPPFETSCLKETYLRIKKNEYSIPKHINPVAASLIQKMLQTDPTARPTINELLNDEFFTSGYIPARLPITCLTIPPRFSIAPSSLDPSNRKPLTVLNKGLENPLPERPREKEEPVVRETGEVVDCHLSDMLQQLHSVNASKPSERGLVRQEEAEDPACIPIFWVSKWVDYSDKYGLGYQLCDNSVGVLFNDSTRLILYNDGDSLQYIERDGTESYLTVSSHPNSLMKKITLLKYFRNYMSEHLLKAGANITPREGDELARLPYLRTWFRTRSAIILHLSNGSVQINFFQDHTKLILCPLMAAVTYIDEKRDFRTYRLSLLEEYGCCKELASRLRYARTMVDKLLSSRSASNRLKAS
Put plainly: pTCTP in AML cell lines MV4-11 and HL-60, western blot (FIG. 2C). It counts as cell-based. The settings on record: MV4-11 and HL-60, 15 minutes; onvansertib 0.1 or 0.5 μM, cytarabine 10 or 100 nM, decitabine 0.2 or 1 μM. Here is the method:
(§1) Protein extracts were prepared from PBMC and cell lines using M-PER buffer (ThermoFisher) with 150 mM NaCl and 1× protease and phosphatase inhibitors cocktails (ThermoFisher). Protein concentration was measured with the Pierce BCA protein assay kit (ThermoFisher).
Western blots were performed as Simple Western™ assays using the Wes system (ProteinSimple), a combination of capillary electrophoresis and immunodetection techniques, following the manufacturer's protocols. Briefly, extracts with equal protein concentration were mixed with 0.1× sample buffer and 5× fluorescent master mix. Denatured protein samples, biotinylated ladder (ProteinSimple), primary antibodies, horseradish peroxidase (HRP)-conjugated secondary antibody (ProteinSimple), chemiluminescence substrate and wash buffer were dispensed into respective wells of the assay plate and placed in Wes equipment. Primary antibodies were purchased from Cell Signaling Technology: phospho-TCTP-Ser46 (#5251) and TCTP (#5128), and used at a concentration of 1:50. Quantitative analysis was performed using Compass software (ProteinSimple). […]
AML cell lines MV4-11 and HL-60 were treated for 15 minutes with onvansertib (PCM-075) (0.1 or 0.5 μM), cytarabine (10 or 100 nM) or decitabine (0.2 or 1 μM). Proteins were then extracted from the cells and assessed for pTCTP.
In general terms: In western blotting, separated proteins are transferred to a membrane and probed.

The next data set relates to xenograft tumor. The settings on record: mice, oral administration, well tolerated doses; cited from earlier work.
The subject of data set [2] is HT29 human colon adenocarcinoma xenografts. Particulars: combination with irinotecan, compared to each agent alone; cited from earlier work.
The next data set relates to cancer cell lines. The settings on record: cited from earlier work.
For data set [3] the following is noted: cited from earlier work; for half-life: oral administration.
Data set [4] concerns cell lines, both from solid as well as hematologic tumors. The settings on record: large number of cell lines, solid and hematologic tumors; cited from earlier work.
Data set [5] relates to acute myeloid leukemia (AML). Put plainly: Clinical response of AML patients, trial NCT03303339 (leukemic cells in blood and bone marrow). Format: in vivo, human. The text has this: Patient data provided herein is from patients in clinical trial NCT03303339, Onvansertib in Combination With Either Low-dose Cytarabine (LDAC) or Decitabine in Adult Patients With Acute Myeloid Leukemia (AML) (ClinicalTrials.gov).
Responders were defined as patients showing a decrease in circulating and bone marrow blasts during treatment.

Data set [6] concerns advanced/metastatic solid tumors. Particulars: adult subjects; cited from earlier work.
The target in data set [7] is T2, PLK1 phosphorylation of TCTP (Homo sapiens, UniProt P53350). Put plainly: pTCTP (Ser46) in patient blood PBMC before and 3 hours after onvansertib. The settings on record: for decrease in pTCTP in patient blood: three patients, as early as three hours. Also noted: Protein extracts were prepared from PBMC and cell lines using M-PER buffer; from tissue; host or cells: peripheral blood mononuclear cells from AML patients' blood. Format: in vivo. As to the method: Determination of phosphorylation of serine 46 of TCTP in blood was as follows. Peripheral blood mononuclear cells (PBMC) were isolated from a Cellsave blood tube (Menarini Silicon Biosystems) using Leucosep centrifuge tubes (VWR) and Histopaque-1077 (Sigma) according to the manufacturer's recommendations.
T2 sequence (P53350 whole entry): as above
as §1
Western blots were performed as Simple Western™ assays using the Wes system (ProteinSimple), a combination of capillary electrophoresis and immunodetection techniques, following the manufacturer's protocols. Briefly, extracts with equal protein concentration were mixed with 0.1× sample buffer and 5× fluorescent master mix. Denatured protein samples, biotinylated ladder (ProteinSimple), primary antibodies, horseradish peroxidase (HRP)-conjugated secondary antibody (ProteinSimple), chemiluminescence substrate and wash buffer were dispensed into respective wells of the assay plate and placed in Wes equipment. Primary antibodies were purchased from Cell Signaling Technology: phospho-TCTP-Ser46 (#5251) and TCTP (#5128), and used at a concentration of 1:50. Quantitative analysis was performed using Compass software (ProteinSimple). Signal intensity (area) of pTCTP was normalized to the peak area of TCTP and reported as % pTCTP.
PLK1 inhibition in patients was assessed in blood taken 3-hours following administration of onvansertib at peak concentration (Cmax).
Blood samples were collected before, and 3 hours after, onvansertib treatment from patients enrolled in the trial described in Example 1. The onvansertib treatments were 12, 18, 27, or 40 mg/m^2. pTCTP and TCTP were assessed by Western-Blot and % pTCTP (pTCTP/TCTP) was quantified.
In these studies, biomarker positivity was defined as ≥50% decrease in % pTCTP from T=0 to T=3h.

The target in data set [8] is T2, PLK1 phosphorylation of TCTP. Nature of the data set: Inhibition of pTCTP in vitro, western blot (FIG. 2B).
The target in another data set is PLK1 (Homo sapiens, UniProt P53350). Particulars: versus previous PLK inhibitors; cited from earlier work.
Sequence of PLK1 (P53350 whole entry): as above
Data set [9] relates to disseminated model of AML. The settings on record: combination therapy with cytarabine; cited from earlier work.
The mark [10] stands for this setting: combination with LDAC or decitabine.

As for `Nc1ccn([C@@H]2O[C@H](CO)[C@@H](O)[C@@H]2O)c(=O)n1` [cytarabine], in data set [1], the “inhibition of pTCTP” value is “but not cytarabine or decitabine, inhibited pTCTP”.

Turning to `CN1CCN(c2ccc(OC(F)(F)F)c(Nc3ncc4c(n3)-c3c(c(C(N)=O)nn3CCO)CC4)c2)CC1` [onvansertib, 1-(2-hydroxyethyl)-8-{[5-(4-methylpiperazin-1-yl)-2-(trifluoromethoxy)phenyl]amino}-4,5-dihydro-1H-pyrazolo[4,3-h] quinazoline-3-carboxamide], the xenograft tumor growth result in the data set on xenograft tumor is given as “inhibits xenograft tumor growth”. In [2], the tumor regression entry was “enhanced tumor regression”. The “mitotic cell-cycle arrest followed by apoptosis” value in the data set with cancer cell lines is listed as “potently causes a mitotic cell-cycle arrest followed by apoptosis”. Further, the half-life result in data set [3] is “about 24 hours”; in data set [3] (listed as Onvansertib), roughly 24 h. The oral bioavailability entry in [3] (rodent and nonrodent species) is listed as “good oral bioavailability”. The “inhibition of pTCTP” value in data set [1] is given as “inhibited pTCTP”. Besides, in [4], the “potency in proliferation assays” value is given as “low nanomolar activity”. Also, the “biomarker positive patients with a decrease in BM blasts≥50%” value in [5] (setting [10]) is on record as “six out of the nine”. Moreover, the “patients with complete response [CR] or CR with incomplete hematological recovery [CRi]” value in [5] (setting [10]) was “Four”. Besides, the “patients exhibiting a response (decrease in leukemic cells in blood and bone marrow)” value in data set [5] (in combination with low-dose cytarabine (LDAC) or decitabine) is given as “Three of 6”. For the same compound, the “leukemic cells in bone marrow, decrease” value in data set [5] (patient 07-009, combination with decitabine) is listed as 96% to 55%; in data set [5] (patient 07-011, combination with decitabine) it was 55% to 15%. Moreover, the “evaluable patients with stable disease” value in data set [6] is on record as 5 of 16. Moreover, the “recommended phase 2 dose” value in data set [6] was 24 mg/m^2. Further, the “decrease of pTCTP in cells of non-responders” value in [7] (5 non-responders, higher dose 18 mg/m^2) is “did not show a decrease of pTCTP”. Also, in data set [7] (the one biomarker negative patient with objective response), the “decrease in pTCTP” value is 40%. For the same compound, the “decrease in pTCTP in patient blood” value was “only the responder showed a decrease in pTCTP” in data set [7] (onvansertib and LDAC); “only the two responders showed a decrease in pTCTP” in [7] (onvansertib and decitabine). Further, the “inhibition of pTCTP in vitro” value in data set [8] is listed as “inhibits pTCTP in vitro, in a dose-dependent manner”. Also, at PLK1, the “selectivity for PLK1” value was “high selectivity for PLK1 only”. In addition, the survival of animals result in [9] is “prolonged survival”.
